Results taken from article PMC11434868, “Synthesis and Antiproliferative Effect of 3,4,5-Trimethoxylated Chalcones on Colorectal and Prostatic Cancer Cells” (Pharmaceuticals, 2024).

Legend:
[1] = tested on: DU145; test: MTT assay, antiproliferative effect on DU145; type: cell-based; details: Homo sapiens
Procedure: (§1) Human CRC (HCT116 and HT-29) and PCa (DU145 and PC3) cell lines were purchased from the American Type Culture Collection (ATCC—LGC Standards, Molsheim, France). All cells were grown in RPMI 1640 medium supplemented with 10% FBS, 1% L-glutamine, 100 U/mL penicillin, and 100 μg/mL streptomycin. Cultures were maintained in a humidified atmosphere containing 5% CO2 at 37 °C. Cells were seeded in 75 cm^2 culture flasks at 1.2 × 10^4 cells/cm^2 for HCT116, DU145, and PC3 cells, and 2.0 × 10^4 for HT-29 cells. Cells were grown for 24 h in culture medium prior to exposure or not to obtain the synthesized compounds. Stock solutions (10^−2 M in DMSO) of each compound were diluted in culture medium to obtain appropriate final concentrations.
(§2) • (a) MTT assay: The antiproliferative effect of all compounds was determined using MTT assay (a metabolic activity test). Briefly, cells were seeded in 96-well culture plates at 4 × 10^3 cells/well for HCT116, PC3, and DU145 cells and 6 × 10^3 cells/well for HT-29 cells (100 µL/well), and grown for 24 h in culture medium prior to exposure or not to obtain compounds 1–15 with concentrations ranging from 5 nM to 50 μM. After 24 and 48 h of treatment, MTT (5 mg/mL in PBS) was added and incubated for another 3 h. MTT was then removed from the wells before adding 100 μL/well of DMSO. The optical density was detected with a microplate reader (Multiskan FC, Thermoscientific, Bordeaux, France) at 550 nm and cell viability was expressed as a percentage of each treatment condition compared to control cells. IC50 values were calculated for all compounds from the dose–response curve. Data are expressed as the arithmetic means ± standard error of the mean (SEM) of separate experiments. All experiments were performed at least in triplicate. • (b) Trypan blue dye exclusion method: Cells were grown for 24 h then treated with compounds 10 and 13 at indicated concentrations. After 48 h of treatment, cells were trypsinized and resuspended in complete medium. Each sample was mixed with Trypan blue solution (0.14% in HBSS, Invitrogen-GIBCO, ThermoFisher, Illkirch, France). Colored (non-viable) and dye-excluding (viable) cells were counted with the LUNA-II automated cell Counter (Logos Biosystems; MC2, Aubière, France). The control was normalized to 100% including viable and dead cells. The results indicated on the histograms were expressed as the percentage of cells compared to the control. IC50 values were determined from the percentages of viable cells compared to the control.

[2] = tested on: DU145; test: Trypan blue dye exclusion method on DU145; type: cell-based, human
Procedure: as §1, §2

[3] = tested on: HCT116; test: MTT assay, antiproliferative effect on HCT116; type: cell-based; details: Homo sapiens
Procedure: as §1, §2

[4] = tested on: HT-29; test: Trypan blue dye exclusion method on HT-29; type: cell-based, human
Procedure: as §1, §2

[5] = tested on: caspase-3 and PARP in DU145 cells; test: Western blot of apoptosis-related proteins in DU145; type: cell-based, human; details: DU145, 48 h;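 further: compared with untreated control cells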
Procedure: (§3) For total protein extraction, collected samples of each condition were washed in PBS. Then, the total cell pool was centrifuged at 200 g for 5 min at 4 °C and homogenized in RIPA lysis buffer (50 mM HEPES, pH 7.5, 150 mM NaCl, 1% sodium deoxycholate, 1% NP-40, 0.1% SDS, […] of aprotinin) containing protease inhibitors according to the manufacturer’s instructions. After quantification of protein levels using the Bradford method, proteins ([…]) were separated on 12.5% SDS-PAGE gels and transferred to PVDF membranes (GE Healthcare Life Science—Fisher Scientific). Membranes were probed with respective antibodies against human caspase-3, cleaved caspase-3, and PARP according to the manufacturer’s instructions. After incubation with appropriate secondary antibodies, blots were developed using the “ImmobilonWestern” substrate, following the manufacturer’s protocol, and G:BOX system (Syngene, Cambridge, UK). Membranes were then reblotted with human anti-β-actin used as a loading control.

[6] = tested on: PC3; test: MTT assay, antiproliferative effect on PC3; type: cell-based; details: Homo sapiens
Procedure: as §1, §2

[7] = tested on: caspase-3 and PARP in PC3 cells; test: Western blot of apoptosis-related proteins in PC3; type: cell-based, human; details: PC3, 48 h;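 further: compared with untreated control cells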
Procedure: as §3

[8] = tested on: PC3; test: Trypan blue dye exclusion method on PC3; type: cell-based, human
Procedure: as §1, §2

[9] = tested on: caspase-3 and PARP in HT-29 cells; test: Western blot of apoptosis-related proteins in HT-29; type: cell-based, human; details: HT-29, 48 h;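 further: compared with untreated control cells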
Procedure: as §3

[10] = tested on: HCT116; test: Trypan blue dye exclusion method on HCT116; type: cell-based, human
Procedure: as §1, §2

[11] = tested on: human CRC (HCT116 and HT-29) and human PCa (DU145 and PC3) cell lines; test: MTT assay, summary statements over the cell lines; type: cell-based
Procedure: as §1, §2

[12] = tested on: caspase-3 and PARP in HCT116 cells; test: Western blot of apoptosis-related proteins in HCT116; type: cell-based, human; details: HCT116, 48 h;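 further: compared with untreated control cells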
Procedure: as §3

Question: For `COc1cc(C(=O)/C=C/c2coc3ccc(C)cc3c2=O)cc(OC)c1OC` [chalcone 13, (E)-6-methyl-3-(3-oxo-3-(3,4,5-trimethoxyphenyl)prop-1-en-1-yl)-4H-chromen-4-one], which IC50 ([1]; DU-145, 24 h, read-out: IC50 DU145 24 h) is on record?
Answer: 3.92 ± 0.24 µM

Question: And the IC50 ([1]; DU-145, 48 h, read-out: IC50 DU145 48 h)?
Answer: 3.31 ± 0.09 µM

Question: What about the Dead cells ([2]; DU145, 48 h, 2.5 µM) of the same compound?
Answer: 3.24%

Question: What about the Dead cells ([2]; DU145, 48 h, 5 µM) of the same compound?
Answer: 8.67%

Question: And the Dead cells ([2]; DU145, 48 h, 7.5 µM)?
Answer: 6.49%

Question: What about the IC50 ([2]; Homo sapiens, DU-145, 48 h, from percentages of viable cells, read-out: IC50 Trypan Blue Test DU145) of the same compound?
Answer: 3.98 µM

Question: What about the viability at 2.5 µM ([2]; Homo sapiens, DU-145, DU145, 48 h, 2.5 µM, read-out: Viable cells) of the same compound?
Answer: 84.6%

Question: What about the viability at 5 µM ([2]; Homo sapiens, DU-145, DU145, 48 h, 5 µM, read-out: Viable cells) of the same compound?
Answer: 29.3%

Question: What about the viability at 7.5 µM ([2]; Homo sapiens, DU-145, DU145, 48 h, 7.5 µM, read-out: Viable cells) of the same compound?
Answer: 12.8%

Question: What about the IC50 ([3]; HCT-116, 24 h, read-out: IC50 HCT116 24 h) of the same compound?
Answer: 2.86 ± 0.2 µM

Question: What about the IC50 ([3]; HCT-116, 48 h, read-out: IC50 HCT116 48 h) of the same compound?
Answer: 2.59 ± 0.12 µM

Question: What about the Dead cells ([4]; HT-29, 48 h, 2.5 µM) of the same compound?
Answer: 5.48%

Question: And the Dead cells ([4]; HT-29, 48 h, 7.5 µM)?
Answer: 9.04%

Question: And the IC50 ([4]; Homo sapiens, HT-29, 48 h, from percentages of viable cells, read-out: IC50 Trypan Blue Test HT-29)?
Answer: 4.05 µM

Question: And the viability at 2.5 µM ([4]; Homo sapiens, HT-29, 48 h, 2.5 µM, read-out: Viable cells)?
Answer: 72.2%

Question: And the viability at 5 µM ([4]; Homo sapiens, HT-29, 48 h, 5 µM, read-out: Viable cells)?
Answer: 37.6%

Question: What about the viability at 7.5 µM ([4]; Homo sapiens, HT-29, 48 h, 7.5 µM, read-out: Viable cells) of the same compound?
Answer: 18.5%

Question: And the “PARP cleavage (89 kDa fragment)” value [5]?
Answer: clearly observed

Question: And the “cleaved caspase-3” value [5]?
Answer: clearly observed

Question: What about the “native PARP expression” value [5] of the same compound?
Answer: strong decreased expression

Question: What about the pro-caspase-3 expression [5] of the same compound?
Answer: decrease was less marked

Question: And the IC50 ([6]; PC-3, 24 h, read-out: IC50 PC3 24 h)?
Answer: 5.18 ± 0.39 µM

Question: What about the IC50 ([6]; PC-3, 48 h, read-out: IC50 PC3 48 h) of the same compound?
Answer: 5.13 ± 0.25 µM

Question: What about the “PARP cleavage (89 kDa fragment)” value [7] of the same compound?
Answer: clearly observed

Question: What about the “cleaved caspase-3” value [7] of the same compound?
Answer: clearly observed

Question: What about the “native PARP expression” value [7] of the same compound?
Answer: strong decreased expression

Question: And the pro-caspase-3 expression [7]?
Answer: decreased

Question: And the IC50 ([8]; Homo sapiens, PC-3, 48 h, from percentages of viable cells, read-out: IC50 Trypan Blue Test PC3)?
Answer: 5.33 µM

Question: What about the viability at 2.5 µM ([8]; Homo sapiens, PC-3, PC3, 48 h, 2.5 µM, read-out: Viable cells) of the same compound?
Answer: 92.8%

Question: And the viability at 5 µM ([8]; Homo sapiens, PC-3, PC3, 48 h, 5 µM, read-out: Viable cells)?
Answer: 54.3%

Question: What about the viability at 7.5 µM ([8]; Homo sapiens, PC-3, PC3, 48 h, 7.5 µM, read-out: Viable cells) of the same compound?
Answer: 15.4%

Question: What about the Dead cells ([8]; PC3, 48 h, 2.5 µM) of the same compound?
Answer: 9.51%

Question: What about the Dead cells ([8]; PC3, 48 h, 5 µM) of the same compound?
Answer: 6.14%

Question: What about the Dead cells ([8]; PC3, 48 h, 7.5 µM) of the same compound?
Answer: 4.23%

Question: What about the “PARP cleavage (89 kDa fragment)” value [9] of the same compound?
Answer: clearly observed

Question: And the “cleaved caspase-3” value [9]?
Answer: clearly observed

Question: What about the “native PARP expression” value [9] of the same compound?
Answer: strong decreased expression

Question: And the pro-caspase-3 expression [9]?
Answer: decreased

Question: And the Dead cells ([10]; HCT116, 48 h, 2.5 µM)?
Answer: 5.46%

Question: What about the Dead cells ([10]; HCT116, 48 h, 5 µM) of the same compound?
Answer: 11.11%

Question: And the Dead cells ([10]; HCT116, 48 h, 7.5 µM)?
Answer: 10.46%

Question: What about the IC50 ([10]; Homo sapiens, HCT-116, 48 h, from percentages of viable cells, read-out: IC50 Trypan Blue Test HCT116) of the same compound?
Answer: 3.48 µM

Question: What about the viability at 2.5 µM ([10]; Homo sapiens, HCT-116, HCT116, 48 h, 2.5 µM, read-out: Viable cells) of the same compound?
Answer: 74.1%

Question: What about the viability at 5 µM ([10]; Homo sapiens, HCT-116, HCT116, 48 h, 5 µM, read-out: Viable cells) of the same compound?
Answer: 19.6%

Question: And the viability at 7.5 µM ([10]; Homo sapiens, HCT-116, HCT116, 48 h, 7.5 µM, read-out: Viable cells)?
Answer: 10.1%

Question: What about the IC50 ([11]; Homo sapiens, 48 h, read-out: IC50 over the four cell lines) of the same compound?
Answer: 2.6 to 5.1 µM

Question: And the viability at 10 µM ([11]; Homo sapiens, 48 h, from the concentration of 10 µM, whole cell lines)?
Answer: < 10%

Question: What about the “activity relative to chalcone 12” value ([11]; comparison of IC50 values) of the same compound?
Answer: four times more active

Question: And the “cleaved caspase-3” value [12]?
Answer: clearly observed

Question: What about the “native PARP expression” value [12] of the same compound?
Answer: strong decreased expression

Question: What about the pro-caspase-3 expression [12] of the same compound?
Answer: decreased
